System: high fat diet-induced simple steatosis
Experiment: Therapeutic effects on high fat diet-induced simple steatosis in rats
Assay type: in vivo, Wistar rats
Method: 6-week old male rats (Wistar rats) were stabilized and then divided into 2 groups. Animal groups were respectively given a standard diet containing 10% fat (trade name: D12450B, manufactured by Research Diets) and a high fat diet containing 60% fat (trade name: D12492, manufactured by Research Diets) for 24 weeks. […] In order to supply 10 mg/kg which is a daily target dose of tartrate of Compound 1, a diet was formulated by mixing a high fat diet and 0.03% by weight of tartrate of Compound 1. 24 weeks after a supply of each diet, animals were divided into a high fat diet-fed group (n=8), a group fed with a high fat diet+0.03% by weight of tartrate of Compound 1 (n=8), and a standard diet-fed group (n=8), followed by feeding for another 14 weeks. Then, animals were dissected and sera were separated. Then, serum ALT levels (alanine aminotransferase), GPT, (glutamic pyruvate transaminase) were measured using a blood analyzer (FIG. 4). The excised liver was homogenized in a 5(v/v) % Triton-X solution, and a triglyceride working reagent [which was prepared by mixing a free glycerol reagent (F6428, Sigma) and a triglyceride reagent (T2449, Sigma) in a ratio of 4:1(v/v)] was added thereto, followed by measurement of an absorbance at 540 nm to determine the content of triglyceride (FIG. 5). In addition, in order to observe histological fat distribution, a portion of the excised liver was fixed in a 10(v/v) % formalin solution and then a tissue sample was prepared, followed by hematoxylin & eosin(HE) staining and photographing using an image analysis program (computerized image analysis) (FIG. 6, the violet-stained portion represents a normal liver tissue, and white portion represents lipid droplets). Thereafter, an area of lipid droplets/unit area of a sample was calculated (FIG. 7).

[1] = high fat diet + 0.03% drug for 14 weeks, vs high fat diet-fed group

CC(C)(C)OC[C@@H]1C(=O)NCCN1C(=O)C[C@H](N)Cc1cc(F)c(F)cc1F [tartrate of Compound 1, (R)-4-[(R)-3-amino-4-(2,4,5-trifluorophenyl)-butanoyl]-3-(t-butoxymethyl)piperazin-2-one]
significant decrease: serum alanine aminotransferase (ALT), result in words (high fat diet 24 weeks then high fat diet + 0.03% drug (target 10 mg/kg/day) for 14 weeks) | hepatic triglyceride content in hepatic triglyceride analysis, result in words [1] | hepatic triglyceride content in histological analysis (area of lipid droplets/unit area), result in words [1]

— US20130072459A1, “PHARMACEUTICAL COMPOSITION FOR THE PREVENTION OR THE TREATMENT OF NON-ALCOHOLIC FATTY LIVER DISEASE AND THE METHOD FOR PREVENTION OR TREATMENT OF NON-ALCOHOLIC FATTY LIVER DISEASE USING THE SAME” (priority 2010, published 2013)
